According to BindingDB's records for doi:10.1021/jm00048a015 (Pfizer, 1994):

Each compound was assayed against Gastrin/cholecystokinin type B receptor (Cavia porcellus) (assay: In vitro affinity to the cholecystokinin type B receptor in guinea pig cortex assayed using [125I]BH-CCK-8 as radioligand).

| SMILES | IC50 [nM] |
| --- | --- |
| Cc1ccc(NC(=O)N[C@@H]2C[C@H](c3ccccc3)c3ccccc3N(CC(=O)NC(C)(C)C)C2=O)cc1 [N-tert-Butyl-2-[(3R,5R)-2-oxo-5-phenyl-3-(3-p-tolyl-ureido)-2,3,4,5-tetrahydro-benzo[b]azepin-1-yl]-acetamide] | 35 |
| Cc1ccccc1NC(=O)N[C@@H]1C[C@H](c2ccccc2)c2ccccc2N(CC(=O)NC(C)(C)C)C1=O [N-tert-Butyl-2-[(3R,5R)-2-oxo-5-phenyl-3-(3-o-tolyl-ureido)-2,3,4,5-tetrahydro-benzo[b]azepin-1-yl]-acetamide] | 55 |
| Cc1cccc(NC(=O)N[C@@H]2C[C@H](c3ccccc3)c3ccccc3N(CC(=O)OC(C)(C)C)C2=O)c1 [[(3R,5R)-2-Oxo-5-phenyl-3-(3-m-tolyl-ureido)-2,3,4,5-tetrahydro-benzo[b]azepin-1-yl]-acetic acid tert-butyl ester] | 2.5 |
| CCC(C)(C)NC(=O)CN1C(=O)[C@H](NC(=O)Nc2cccc(Cl)c2)C[C@H](c2ccccc2)c2ccccc21 [2-{(3R,5R)-3-[3-(3-Chloro-phenyl)-ureido]-2-oxo-5-phenyl-2,3,4,5-tetrahydro-benzo[b]azepin-1-yl}-N-(1,1-dimethyl-propyl)-acetamide] | 7.6 |
| Cc1ccc2c(c1)N(CC(=O)OC(C)(C)C)C(=O)[C@H](NC(=O)Nc1cccc(Cl)c1)C[C@@H]2c1ccccc1 [{(3R,5R)-3-[3-(3-Chloro-phenyl)-ureido]-8-methyl-2-oxo-5-phenyl-2,3,4,5-tetrahydro-benzo[b]azepin-1-yl}-acetic acid tert-butyl ester] | 2.2 |
| CN(C(=O)CN1C(=O)[C@H](NC(=O)Nc2cccc(Cl)c2)C[C@H](c2ccccc2)c2ccccc21)C(C)(C)C [N-tert-Butyl-2-{(3R,5R)-3-[3-(3-chloro-phenyl)-ureido]-2-oxo-5-phenyl-2,3,4,5-tetrahydro-benzo[b]azepin-1-yl}-N-methyl-acetamide] | 1.5 |
| COc1cccc(NC(=O)N[C@@H]2C[C@H](c3ccccc3)c3ccccc3N(CC(=O)NC(C)(C)C)C2=O)c1 [N-tert-Butyl-2-{(3R,5R)-3-[3-(3-methoxy-phenyl)-ureido]-2-oxo-5-phenyl-2,3,4,5-tetrahydro-benzo[b]azepin-1-yl}-acetamide] | 30.4 |
| Cc1ccc2c(c1)N(CC(=O)NC(C)(C)C)C(=O)[C@H](NC(=O)Nc1cccc(Cl)c1)C[C@@H]2C1CCCCC1 [N-tert-Butyl-2-{(3R,5R)-3-[3-(3-chloro-phenyl)-ureido]-5-cyclohexyl-8-methyl-2-oxo-2,3,4,5-tetrahydro-benzo[b]azepin-1-yl}-acetamide] | 0.6 |
| CC(C)(C)NC(=O)CN1C(=O)[C@H](NC(=O)Nc2cccc(Cl)c2)C[C@H](c2ccccc2)c2cc(Cl)ccc21 [N-tert-Butyl-2-{(3R,5R)-7-chloro-3-[3-(3-chloro-phenyl)-ureido]-2-oxo-5-phenyl-2,3,4,5-tetrahydro-benzo[b]azepin-1-yl}-acetamide] | 24 |
| CC(C)(C)NC(=O)CN1C(=O)[C@H](NC(=O)Nc2cccc(Cl)c2)C[C@H](c2cccc(Cl)c2)c2ccccc21 [N-tert-Butyl-2-{(3R,5R)-5-(3-chloro-phenyl)-3-[3-(3-chloro-phenyl)-ureido]-2-oxo-2,3,4,5-tetrahydro-benzo[b]azepin-1-yl}-acetamide] | 4 |
| Cc1cccc(NC(=O)N[C@@H]2C[C@H](c3ccccc3)c3ccccc3N(CC(=O)NC(C)(C)C)C2=O)c1 [N-tert-Butyl-2-[(3R,5R)-2-oxo-5-phenyl-3-(3-m-tolyl-ureido)-2,3,4,5-tetrahydro-benzo[b]azepin-1-yl]-acetamide] | 10.1 |
| Cc1ccc2c(c1)N(CC(=O)NC(C)(C)C)C(=O)[C@H](NC(=O)Nc1cccc(Cl)c1)C[C@@H]2C(C)C [N-tert-Butyl-2-{(3R,5R)-3-[3-(3-chloro-phenyl)-ureido]-5-isopropyl-8-methyl-2-oxo-2,3,4,5-tetrahydro-benzo[b]azepin-1-yl}-acetamide] | 3.4 |
| Cc1ccc2c(c1)[C@@H](c1ccccc1)C[C@@H](NC(=O)Nc1cccc(Cl)c1)C(=O)N2CC(=O)NC(C)(C)C [N-tert-Butyl-2-{(3R,5R)-3-[3-(3-chloro-phenyl)-ureido]-7-methyl-2-oxo-5-phenyl-2,3,4,5-tetrahydro-benzo[b]azepin-1-yl}-acetamide] | 32 |
| Cc1ccc2c(c1)N(CC(=O)NC(C)(C)C)C(=O)[C@H](NC(=O)Nc1cccc(Cl)c1)C[C@@H]2Cc1ccccc1 [2-{(3R,5S)-5-Benzyl-3-[3-(3-chloro-phenyl)-ureido]-8-methyl-2-oxo-2,3,4,5-tetrahydro-benzo[b]azepin-1-yl}-N-tert-butyl-acetamide] | 1.4 |
